Results published in paper PMC7615676, “Short-course combination treatment for experimental chronic Chagas disease” (Science translational medicine, 2023).
Values after ≈ are worked out from the molar mass of the structure shown. Values joined by “and” are separate entries in the source; they are usually repeats but may differ in a detail not shown here. Equal entries are not always repeated. Where two headings read alike, the source gives them in different places.

How the values were obtained:
[1] = plasma protein binding, equilibrium dialysis; assay type: in vitro ADME; details: pH 7.4, mouse plasma, read-out: Mouse PPB % (converted)
Experimental: In vitro plasma protein binding was measured in mouse and human plasma using equilibrium dialysis at a nominal concentration of 2 μM. The RED inserts were placed in the 48 wells of the Teflon Plate (Pierce). Samples were prepared by mixing the test compound with plasma at the appropriate concentrations to yield a final drug concentration of 2 μM. Triplicate aliquots of plasma containing compounds at a concentration of 2 μM were pipetted to plasma side (red) of the insert, and PBS (phosphate buffered saline) pH 7.4 was placed into the receiver side (white) of the insert. The plate was covered with the sealing tape and incubated in a 37 °C orbital shaker water bath at approximately 150 rpm for 4 h. Following incubation, samples were prepared in a mixed matrix configuration. Aliquots of samples were pipetted into 96-well plates, and precipitation buffer was added to protein precipitate the samples. Samples were vortexed to mix, then centrifuged for 15 min at 3700 rpm and 4 °C. The supernatant was assayed directly by LC−MS/MS. The following equation was used to calculate the percentage bound drug fraction using this equilibrium dialysis method
% unbound = (buffer chamber]/[plasma chamber) x100

[2] = chromatographic LogD assay; assay type: physicochemical; details: reversed phase HPLC column (Gemini NX C18), pH 7.4; read-out: Chrom logD pH 7.4
Experimental: The chromatographic hydrophobicity index (CHI) values were measured using reversed phase HPLC column (50 mm × 2 mm, 3 μm Gemini NX C18, Phenomenex, U.K.) with fast acetonitrile gradient at starting mobile phase at pH 7.4. CHI values were derived directly from the gradient retention times by using a calibration line obtained for standard compounds. The CHI value approximates to the volume % organic concentration when the compound elutes. CHI was linearly transformed into ChromlogD by least-squares fitting of experimental CHI values to calculated log P (ClogP) values for over 20K research compounds using the following formula: ChromlogD = 0.0857CHI − 2.00. The average error of the assay is ±3 CHI units or ± 0.25 ChromlogD.

[3] = kinetic aqueous solubility (CLND); assay type: physicochemical; details: phosphate buffered saline, aqueous buffer, kinetic from dmso stock, pH 7.4
Experimental: The eluent is quantified by suitably calibrated flow injection CLND. This assay has a dynamic range between the lower detection limit of 1 and 500 μM, governed by the protocol’s 1:20 dilution into pH 7.4 phosphate buffer solution from nominal 10 mM DMSO stock.

[4] = bioanalysis of blood samples from in vivo efficacy studies; set-up: species or system BALB/c mice; details: for AUC(0-t) / Cmax: BALB/c, mouse, whole blood, po; for AUC0-7h Day 1, unbound concentrations of BNZ / AUC0-7h Day 5, unbound concentrations of BNZ / Cmax Day 1, unbound concentrations of BNZ / Cmax Day 5, unbound concentrations of BNZ: 30mg/kg qd; for AUC0-7h Day 1, unbound concentrations of BNZ / AUC0-7h Day 5, unbound concentrations of BNZ / Cmax Day 1, unbound concentrations of BNZ / Cmax Day 5, unbound concentrations of BNZ / AUC0-7h Day 1, unbound concentrations of 4 / AUC0-7h Day 5, unbound concentrations of 4 / Cmax Day 1, unbound concentrations of 4 / Cmax Day 5, unbound concentrations of 4: 5 days
Experimental: Following the first daily dose on day 1 and last day of treatment, serial blood samples were taken by the tail vein from all treated mice pre-dose, then 30 minutes, 1, 2, 4, and 8 hours post-dose, mixed with two volumes of distilled water and analyzed for test compound. Quantification of compounds was performed by means of LC/MSMS and exposure parameters namely Cmax and AUClast were estimated using Phoenix 64 (Pharsight Certara).

[5] = intrinsic clearance in mouse liver microsomes; assay type: in vitro ADME; details: for half-life at 0.5 μM: male, CD-1, read-out: T 1/2 mouse
Experimental: Immediately at time zero and at several serial times points up to 30 min, an aliquot of the incubation mixture was removed and mixed with acetonitrile to stop the reaction. Internal standard was added to all samples, the samples centrifuged to sediment precipitated protein and the plates then sealed prior to HPLC-MS/MS analysis. Metabolic stability expressed as a percentage of the parent molecule was calculated using the peak area ratio (compound peak area/internal standard peak area) of different compounds remaining after each incubation time compared to time zero of the incubation. The half-life (t1/2) was calculated using the following equation: t1/2=−ln(2)/k, where k is the turn-over rate constant of the ln (percent remaining) vs time regression.
CLint was calculated from the half-life (t1/2) using the following equations:
CLint (ml/min/g liver) = (0.693/(t1/2) x (ml of incubation/mg microsomal protein) x (mg microsomal protein/g liver).

[6] = tested on: chronic T. cruzi infection (CL Brener) in BALB/c mice; assay: bioluminescent mouse model of chronic Chagas disease; assay type: in vivo, Trypanosoma cruzi
Experimental: Compound 2 was evaluated in a bioluminescent mouse model of Chagas disease designed to mimic chronic infections. This model successfully differentiates the clinically used drugs from the clinically invalidated CYP51 inhibitors ([21]). Key features of this model include immunosuppression of mice following cessation of treatment to allow detection of parasite relapses, and ex vivo bioluminescence imaging that allows tissue-specific visualization of parasites. Treatments are considered efficacious if there is no evidence of bioluminescence during in vivo (mouse) and ex vivo (organ/tissue) imaging following immunosuppression ([38]). Under these experimental conditions, compound 2 was able to prevent parasite relapse in 2 of the 6 mice treated orally twice daily for 10 days at 50 mg/kg (Table S1). Increasing the dose to 100 mg/kg or extending treatment duration to 21 days provided similar partial efficacy rates.
Experiments followed a similar protocol to that described in ([21]). All animals were female (BALB/cAnNCrlC mice, 6-8 weeks old, strain code: 028, supplier: Charles River (UK)). We have previously shown that there are no differences in the bioluminescence profiles between infected males and females ([77]). Animals were maintained under specific pathogen-free conditions in individually ventilated cages. They experienced a 12-hour light/dark cycle, with access to food and water ad libitum. Mice were randomly selected and distributed into cages on arrival day by a Named Animal Care and Welfare Officer (NACWO), at LSHTM biological service facility (BSF). For efficacy experiments animals were randomly selected from the cages and ear/tail tagged on the infection day, starting from number 1. The same mouse ID was kept until the experimental endpoint. Mice were infected by i.p injection with 1x10^3 trypomastigotes derived from SCID mouse blood ([67]). To confirm infection, mice were imaged around the peak of parasite load. […] Treatment initiated in the chronic stage of infection ranging between 90 and 127 days post-infection. Drugs were administered by oral gavage (~200 μl), and vehicle only (0.5% w/v hydroxypropylmethylcellulose with 0.4% v/v Tween 80 and 0.5% v/v benzyl alcohol) was administered to control mice. Total number of animals for each study arm is shown in the relevant figures. To detect residual infection, mice were immunosuppressed using cyclophosphamide (at 200 mg/kg) by ip injection every 4 days for a maximum of three doses. For in vivo imaging, mice were injected ip with 150 mg/kg D-luciferin in Dulbecco’s Ca^2+/Mg^2+-free PBS, then anaesthetized using 2.5% (v/v) isofluorane in oxygen. Images were obtained using an IVIS Lumina II system (Caliper Life Science) 10−20 min after D-luciferin administration. The detection threshold was established from uninfected mice. Organs/tissue samples were assessed by ex vivo imaging as described previously ([21]). The limit of detection in this system is less than 20 parasites ([29]).

[7] = dosing group BNZ+ 3 (50mg/kg bid)
[8] = 4 10 mg/kg bid + BNZ 30mg/kg qd
[9] = 4 30 mg/kg bid + BNZ 30mg/kg qd

In the case of `COc1cc(F)ccc1-c1c(C)[nH]c2nc(N)nc(C)c12` [Compound 2, 5-(4-Fluoro-2-methoxyphenyl)-4,6-dimethyl-7H-pyrrolo[2,3-d]pyrimidin-2-amine], the fraction unbound at 4 h, 2 μM [1] is reported as 0.18, the chromatographic logD [2] is reported as 3.4 and the solubility at 1 h [3] is reported as 117 µg/mL (≈ 409 µM). For the same compound, the AUC(0-t) ([4]; 50 mg/kg, compound 2 50mg/kg bid, 21-day study, read-out: AUC0-7h Day 1) was 5280 ± 1230 ng·h/mL, the AUC(0-t) ([4]; 50 mg/kg, compound 2 50mg/kg bid, 21-day study, read-out: AUC0-7h Day 21) was 8860 ± 1210 ng·h/mL and the Cmax ([4]; 50 mg/kg, compound 2 50mg/kg bid, 21-day study, read-out: Cmax Day 1) was 870 ± 196 ng/mL. The Cmax ([4]; 50 mg/kg, compound 2 50mg/kg bid, 21-day study, read-out: Cmax Day 21) was 1470 ± 202 ng/mL, the AUC(0-t) ([4]; 100 mg/kg, compound 2 100mg/kg bid (changed to qd after day 1), 10-day study, read-out: AUC0-7h Day 1) was 6270 ± 1140 ng·h/mL and the AUC(0-t) ([4]; 100 mg/kg, compound 2 100mg/kg bid (changed to qd after day 1), 10-day study, read-out: AUC0-7h Day 10) was 11500 ± 1950 ng·h/mL. It also gave a Cmax ([4]; 100 mg/kg, compound 2 100mg/kg bid (changed to qd after day 1), 10-day study, read-out: Cmax Day 1) of 1250 ± 236 ng/mL, a Cmax ([4]; 100 mg/kg, compound 2 100mg/kg bid (changed to qd after day 1), 10-day study, read-out: Cmax Day 10) of 2260 ± 315 ng/mL and a Cl int mouse [5] of 1.3 ml/min/g liver. For the same compound, the half-life at 0.5 μM [5] was 52 min, the “No. cured/ no. tested” value ([6]; 50 mg/kg bid oral, 10 days) was 2 of the 6 and 2/6 and the “No. cured/ no. tested” value ([6]; 50 mg/kg bid oral, 21 days) was 2/6. The “No. cured/ no. tested” value ([6]; 100 mg/kg bid oral, 10 days (changed to once daily after day 1)) was 2/4 and the “toxicity in infected mice” value ([6]; 100 mg/kg bid, after first day of treatment) was “two mice were culled due to toxicity”.
In the case of `O=C(Cn1ccnc1[N+](=O)[O-])NCc1ccccc1` [Benznidazole, reference compound], the chromatographic logD [2] is reported as 2.3, the solubility at 1 h [3] is reported as 77 µg/mL (≈ 296 µM) and the “AUC0-7h Day 1, unbound concentrations of BNZ” value ([4]; dosing group BNZ alone) is reported as 18788 ± 3214 ng·h/mL. The “AUC0-7h Day 5, unbound concentrations of BNZ” value ([4]; dosing group BNZ alone) was 12583 ± 1812 ng·h/mL, the “Cmax Day 1, unbound concentrations of BNZ” value ([4]; dosing group BNZ alone) was 6928 ± 1302 ng/mL and the “Cmax Day 5, unbound concentrations of BNZ” value ([4]; dosing group BNZ alone) was 5230 ± 1373 ng/mL. For the same compound, the “AUC0-7h Day 1, unbound concentrations of BNZ” value [4, 7] was 15881 ± 4211 ng·h/mL, the “AUC0-7h Day 5, unbound concentrations of BNZ” value [4, 7] was 11350 ± 4513 ng·h/mL and the “Cmax Day 1, unbound concentrations of BNZ” value [4, 7] was 5188 ± 1385 ng/mL. For the same compound, the “Cmax Day 5, unbound concentrations of BNZ” value [4, 7] was 3725 ± 1302 ng/mL, the “No. cured/ no. tested” value ([6]; 100 mg/kg qd oral, 10 days) was 3/3 and the “No. cured/ no. tested” value ([6]; 100 mg/kg qd oral, 20 days) was 6/6.
With `COc1ccc(-c2c(C)[nH]c3nc(N)nc(C)c23)c(OC)c1` [Compound 4, 5-(2,4-Dimethoxyphenyl)-4,6-dimethyl-7H-pyrrolo[2,3-d]pyrimidin-2-amine] the fraction unbound at 4 h, 2 μM [1] was 0.22, the chromatographic logD [2] was 3.1 and the solubility at 1 h [3] was 137 µg/mL (≈ 459 µM). For the same compound, the “AUC0-7h Day 1, unbound concentrations of 4” value [4, 8] was 2419 ± 453 ng·h/mL, the “AUC0-7h Day 5, unbound concentrations of 4” value [4, 8] was 1488 ± 292 ng·h/mL and the “Cmax Day 1, unbound concentrations of 4” value [4, 8] was 496 ± 82 ng/mL. For the same compound, the “Cmax Day 5, unbound concentrations of 4” value [4, 8] was 650 ± 203 ng/mL, the “AUC0-7h Day 1, unbound concentrations of 4” value [4, 9] was 10441 ± 1994 ng·h/mL and the “AUC0-7h Day 5, unbound concentrations of 4” value [4, 9] was 6773 ± 311 ng·h/mL. The “Cmax Day 1, unbound concentrations of 4” value [4, 9] was 1931 ± 261 ng/mL, the “Cmax Day 5, unbound concentrations of 4” value [4, 9] was 1577 ± 161 ng/mL and the “AUC0-7h Day 1, unbound concentrations of 4” value ([4]; 4 50mg/kg bid alone) was 16176 ± 776 ng·h/mL. The “AUC0-7h Day 5, unbound concentrations of 4” value ([4]; 4 50mg/kg bid alone) was 17378 ± 1605 ng·h/mL, the “Cmax Day 1, unbound concentrations of 4” value ([4]; 4 50mg/kg bid alone) was 2934 ± 294 ng/mL and the “Cmax Day 5, unbound concentrations of 4” value ([4]; 4 50mg/kg bid alone) was 3736 ± 628 ng/mL. For the same compound, the Cl int mouse [5] was 2.0 ml/min/g liver and the half-life at 0.5 μM [5] was 33 min.
